One assay deals with T1, Human A2AR (Homo sapiens, UniProt P29274).
T1 construct: expressed in transfected cells; host or cells: HeLa-A2A cell line (membranes prepared in house, lot A003/14-04-2019)
Nature of the assay: Human A2AR competition radioligand binding ([3H]-ZM241385, HeLa-A2A membranes). The settings on record: for Ki: xlsx sheet A2AR_Displacement, read-out: Ki (A2AR) printed in column Displacement at 20 uM (%); for A2AR radioligand displacement at 20 µM (%): 20 µM compound, mean ± SEM of two technical replicates. How it is done:
(§1) Screening compounds (Supplementary Tables 10 and 12) were purchased from Enamine (compound purity >90%, which was confirmed by liquid chromatography−mass spectrometry and ^1H NMR spectroscopy for identified ligands; Supplementary Figs. 19–30). Human D2R competition binding experiments were carried out in polypropylene 96-well plates. Each well contained 20 µg of membranes from a CHO-D2R #S20 cell line (protein concentration of 4,322 µg ml^−1), 1.5 nM [^3H]-spiperone (54.3 Ci mmol^−1, 1 mCi ml^−1, PerkinElmer NET1187250UC) and the compound studied. Non-specific binding was determined in the presence of 10 µM sulpiride (Sigma Aldrich S8010). The reaction mixture (250 µl per well) was incubated at 25 °C for 120 min, after which 200 µl was transferred to a GF/C 96-well plate (Millipore) pretreated with 0.5% PEI and treated with binding buffer (50 mM Tris-HCl, 1 mM EDTA, 5 mM MgCl2, 5 mM KCl, 120 mM NaCl, pH 7.4). The reaction mixture was filtered and washed 4 times with 250 µl wash buffer (50 mM Tris-HCl, 0.9% NaCl, pH 7.4) before the addition of 30 μl Universol. The final measurement was performed in a microplate beta scintillation counter (Microbeta Trilux, PerkinElmer). Human A2AR competition binding experiments were carried out in a multiscreen GF/C 96-well plate (Millipore) pretreated with binding buffer (Tris-HCl 50 mM, EDTA 1 mM, MgCl2 10 mM, 2 U ml^−1 adenosine deaminase, pH 7.4). Each well was incubated with 5 μg of membranes from the HeLa-A2A cell line and prepared in our laboratory (lot A003/14-04-2019, protein concentration 2,058 μg ml^−1), 1 nM [^3H]-ZM241385 (50 Ci mmol^−1, 1 mCi ml^−1, ARC-ITISA 0884), and the compounds studied and standards. Non-specific binding was determined in the presence of NECA 50 μM (Sigma E2387). The reaction mixture (total volume of 200 μl per well) was incubated at 25 °C for 30 min, then filtered and washed 4 times with 250 μl wash buffer (Tris-HCl 50 mM, EDTA 1 mM, MgCl2 10 mM, pH 7.4), and measured in a microplate beta scintillation counter (Microbeta Trilux, PerkinElmer). Unless stated otherwise, three independent experiments were carried out to calculate Ki values.
(In general: In a radioligand displacement assay an active substance lowers the binding of a labelled ligand.)

In a further assay the target is T2, Human D2R (Homo sapiens, UniProt P14416).
T2 construct: expressed in transfected cells
T2 sequence (P14416 whole entry): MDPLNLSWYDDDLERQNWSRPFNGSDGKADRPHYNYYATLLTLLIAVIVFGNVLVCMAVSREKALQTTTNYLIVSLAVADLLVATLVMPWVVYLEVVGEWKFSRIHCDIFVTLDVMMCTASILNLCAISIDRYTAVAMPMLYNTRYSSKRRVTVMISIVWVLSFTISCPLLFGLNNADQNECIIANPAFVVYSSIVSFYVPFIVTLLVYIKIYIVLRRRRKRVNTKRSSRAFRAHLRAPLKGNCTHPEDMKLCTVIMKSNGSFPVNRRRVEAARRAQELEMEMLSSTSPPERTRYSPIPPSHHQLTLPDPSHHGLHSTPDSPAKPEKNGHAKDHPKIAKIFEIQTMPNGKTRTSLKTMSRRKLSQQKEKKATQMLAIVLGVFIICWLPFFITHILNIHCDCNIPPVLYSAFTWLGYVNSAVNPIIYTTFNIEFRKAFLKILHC
Nature of the assay: Human D2R competition radioligand binding ([3H]-spiperone, CHO-D2R #S20 membranes). The settings on record: 10 µM compound, mean ± SEM of two technical replicates; for inhibition at 10 µM: 2 h, read-out: D2R radioligand displacement at 10 µM (%). How it is done:
as §1

The term Ki denotes the equilibrium dissociation constant of an inhibitor or competing ligand from its target.

T1 sequence (P29274 whole entry): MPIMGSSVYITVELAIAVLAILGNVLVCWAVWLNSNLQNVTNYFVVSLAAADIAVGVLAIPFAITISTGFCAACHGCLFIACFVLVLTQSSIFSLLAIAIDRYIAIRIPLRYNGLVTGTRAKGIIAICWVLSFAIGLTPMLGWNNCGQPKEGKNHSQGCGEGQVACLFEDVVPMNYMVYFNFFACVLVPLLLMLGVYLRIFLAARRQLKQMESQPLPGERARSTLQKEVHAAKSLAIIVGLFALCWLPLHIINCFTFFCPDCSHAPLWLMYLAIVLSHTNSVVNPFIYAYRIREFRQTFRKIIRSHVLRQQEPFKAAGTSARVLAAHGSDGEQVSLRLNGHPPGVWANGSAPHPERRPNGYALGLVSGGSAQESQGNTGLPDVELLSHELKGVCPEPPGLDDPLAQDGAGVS

On to `Cc1cccc(CC(N)C(=O)Nc2nc3c(Br)cc(F)cc3[nH]2)c1` (stereo not drawn) [Compound 3, Cc1cccc(c1)CC(C(=O)Nc2[nH]c3cc(cc(c3n2)Br)F)N], for which the Ki on Human A2AR was determined as 2500 nM.

Take `O=C(CN1CC[C@H](Oc2ccccc2)C1)c1c[nH]c2nc(Cl)ccc12` [Compound 4, c1ccc(cc1)O[C@H]2CCN(C2)CC(=O)c3c[nH]c4c3ccc(n4)Cl]: the Ki at Human A2AR is 1400 nM. Turning to `CCOC(=O)c1cccc2[nH]c(NC(=O)C(N)Cc3ccco3)nc12` (stereo not drawn) [Compound 6, CCOC(=O)c1cccc2c1nc([nH]2)NC(=O)C(Cc3ccco3)N], the Ki at Human A2AR was determined as 1300 nM. Regarding `FC(F)(F)c1ccnc(N2CCN(C3CCC3)CC2)c1` [Z1348398263, c1cnc(cc1C(F)(F)F)N2CCN(CC2)C3CCC3], on Human D2R, the “D2R radioligand displacement at 10 µM (%)” value is listed as 5 ± 3% and the inhibition at 10 µM stood at 5 ± 3%.

Consider `c1ccc([C@H]2C[C@H](NCc3ccccc3-n3cccn3)C2)cc1` [Z1973963178, c1ccc(cc1)[C@H]2C[C@@H](C2)NCc3c(cccc3)n4nccc4], for which, at Human D2R, the “D2R radioligand displacement at 10 µM (%)” value was 1 ± 2% and the inhibition at 10 µM stood at 1 ± 2%. As to `OC(Cc1cccc(Cl)c1)CN1CCC=C(c2ccco2)C1` (stereo not drawn) [Z2102774071, c1cc(cc(c1)Cl)CC(CN2CCC=C(C2)c3ccco3)O], on Human D2R, the “D2R radioligand displacement at 10 µM (%)” value is given as 10 ± 3% and the inhibition at 10 µM was 10 ± 3%. Take `Fc1ccc([C@H]2C[C@H](NCc3cnn(-c4ccccc4)n3)C2)cc1` [Z2213086620, c1ccc(cc1)n2nc(cn2)CN[C@H]3C[C@@H](C3)c4ccc(cc4)F]: on Human D2R, the “D2R radioligand displacement at 10 µM (%)” value is listed as 27 ± 1% and the inhibition at 10 µM came out at 27 ± 1%.

With `NC(=NCc1nc(-c2ccccc2)n[nH]1)Nc1ccccn1` [Z2518713795, c1ccc(cc1)c2nc([nH]n2)CN=C(N)Nc3ccccn3], the “A2AR radioligand displacement at 20 µM (%)” value on Human A2AR was found to be 23±3%.

For the compound `Cn1cc(-c2ccc(CN3CC[C@@H](Oc4ccccc4)C3)s2)cn1` [Z2629646171, Cn1cc(cn1)c2ccc(s2)CN3CC[C@H](C3)Oc4ccccc4], on Human D2R, the “D2R radioligand displacement at 10 µM (%)” value is on record as 7 ± 1% and the inhibition at 10 µM turned out to be 7 ± 1%. Regarding `c1csc(CCN2CCC(Oc3ccc(C4CC4)cn3)C2)c1` (stereo not drawn) [Z2694200197, c1cc(sc1)CCN2CCC(C2)Oc3ccc(cn3)C4CC4], at Human D2R, the “D2R radioligand displacement at 10 µM (%)” value is 17 ± 4% and the inhibition at 10 µM was 17 ± 4%. With `c1cnc(CCN2CCC(c3cn[nH]c3)CC2)cn1` [Z2833584438, c1cnc(cn1)CCN2CCC(CC2)c3c[nH]nc3], at Human D2R, the “D2R radioligand displacement at 10 µM (%)” value came out at 1 ± 1% and the inhibition at 10 µM amounted to 1 ± 1%. Regarding `O=C(Nc1ncccn1)C1CCN(CC(O)C2CCC2)CC1` (stereo not drawn) [Z3292775568, c1cnc(nc1)NC(=O)C2CCN(CC2)CC(C3CCC3)O], the “A2AR radioligand displacement at 20 µM (%)” value on Human A2AR was 1±2%. For `c1ccc(NC2CCN(Cc3cccc4ncnn34)C2)cc1` (stereo not drawn) [Z3310096494, c1ccc(cc1)NC2CCN(C2)Cc3cccc4n3ncn4], at Human D2R, the “D2R radioligand displacement at 10 µM (%)” value came out at 1 ± 2% and the inhibition at 10 µM was determined as 1 ± 2%. Regarding `Cc1[nH]cnc1CN1CCC(Oc2cc(F)cc(F)c2)C1` (stereo not drawn) [Z3516846214, Cc1c(nc[nH]1)CN2CCC(C2)Oc3cc(cc(c3)F)F], at Human D2R, the “D2R radioligand displacement at 10 µM (%)” value is listed as 5 ± 1% and the inhibition at 10 µM is 5 ± 1%. As for `Cc1cc(CC(O)CN2CCc3c(ncn3C3CCC3)C2)ccc1F` (stereo not drawn) [Z3516919089, Cc1cc(ccc1F)CC(CN2CCc3c(ncn3C4CCC4)C2)O], on Human D2R, the “D2R radioligand displacement at 10 µM (%)” value is on record as 1 ± 1% and the inhibition at 10 µM came out at 1 ± 1%.

Take `Clc1nc2c(cc1CN1CC[C@@H](Oc3ccccc3)C1)COCC2` [Z3529190238, c1ccc(cc1)O[C@@H]2CCN(C2)Cc3cc4c(nc3Cl)CCOC4]: on Human D2R, the “D2R radioligand displacement at 10 µM (%)” value stood at 1 ± 1% and the inhibition at 10 µM came to 1 ± 1%. With `c1ccc(C2CC(NCc3cc4ncccc4[nH]3)C2)cc1` (stereo not drawn) [Z3532611366, c1ccc(cc1)C2CC(C2)NCc3cc4c([nH]3)cccn4], on Human D2R, the “D2R radioligand displacement at 10 µM (%)” value came out at 24 ± 1% and the inhibition at 10 µM stood at 24 ± 1%.

Regarding `Cc1cc(NC(=O)c2cccn2CCN2CCOCC2)ns1` [Z3591989733, Cc1cc(ns1)NC(=O)c2cccn2CCN3CCOCC3], the “A2AR radioligand displacement at 20 µM (%)” value on Human A2AR is given as 19±1%. As to `OC(CN1CCC(n2ncc3ccccc32)CC1)c1cccc(Cl)n1` (stereo not drawn) [Z3651347041, c1ccc2c(c1)cnn2C3CCN(CC3)CC(c4cccc(n4)Cl)O], on Human D2R, the “D2R radioligand displacement at 10 µM (%)” value was 28 ± 1% and the inhibition at 10 µM stood at 28 ± 1%. With `CCc1ccc(CNCCc2c[nH]c3c(OC)cccc23)nc1` [Z3765568162, CCc1ccc(nc1)CNCCc2c[nH]c3c2cccc3OC], the “A2AR radioligand displacement at 20 µM (%)” value at Human A2AR is 16±4%. On to `Clc1cccc(CCN2CC(c3ncnc4ccccc34)C2)c1` [Z3806926084, c1ccc2c(c1)c(ncn2)C3CN(C3)CCc4cccc(c4)Cl], for which, on Human D2R, the “D2R radioligand displacement at 10 µM (%)” value is reported as 4 ± 1% and the inhibition at 10 µM was 4 ± 1%. As for `Brc1ccn2c(CN[C@H]3C[C@H](Oc4ccccc4)C3)cnc2c1` [Z8185092056, c1ccc(cc1)O[C@H]2C[C@@H](C2)NCc3n4c(nc3)cc(cc4)Br], on Human D2R, the “D2R radioligand displacement at 10 µM (%)” value came out at 2 ± 2% and the inhibition at 10 µM came out at 2 ± 2%. Regarding `Cc1ccccc1-n1cc(CNC2COc3ccccc3C2)cn1` (stereo not drawn) [Z8185092078, Cc1ccccc1n2cc(cn2)CNC3Cc4ccccc4OC3], at Human D2R, the “D2R radioligand displacement at 10 µM (%)” value is 3 ± 1% and the inhibition at 10 µM was found to be 3 ± 1%.

As for `Cc1cccc(CN[C@H]2C[C@H](Oc3ccccc3)C2)c1F` [Z8185092308, Cc1c(c(ccc1)CN[C@H]2C[C@@H](C2)Oc3ccccc3)F], on Human D2R, the “D2R radioligand displacement at 10 µM (%)” value is 6 ± 2% and the inhibition at 10 µM was determined as 6 ± 2%.

Regarding `Cc1ccc(C(O)CN2CCC3(Cc4ccccc4C3)C2)c(C)c1` (stereo not drawn) [Z8185092353, Cc1ccc(c(c1)C)C(CN2CCC3(C2)Cc4ccccc4C3)O], on Human D2R, the “D2R radioligand displacement at 10 µM (%)” value was 4 ± 3% and the inhibition at 10 µM was 4 ± 3%. As to `Fc1ccc(O[C@H]2CCN(Cc3cnc4ccc(Br)cn34)C2)cc1` [Z8185092492, c1cc(ccc1O[C@H]2CCN(C2)Cc3cnc4n3cc(cc4)Br)F], on Human D2R, the “D2R radioligand displacement at 10 µM (%)” value is given as 5 ± 3% and the inhibition at 10 µM came out at 5 ± 3%. `Cc1ccc(C2CC(NCCn3ncc4ccccc43)C2)cc1` (stereo not drawn) [Z8185092514, Cc1ccc(cc1)C2CC(C2)NCCn3c4ccccc4cn3]: on Human D2R, the “D2R radioligand displacement at 10 µM (%)” value is 23 ± 1% and the inhibition at 10 µM came out at 23 ± 1%. With `Cc1ccc(CCN2C[C@@H]3CN(C(=O)c4cn5c(n4)CC(C)CC5)C[C@@H]3C2)cc1` (stereo partly drawn) [Z8185092530, Cc1ccc(cc1)CCN2C[C@@H]3CN(C[C@@H]3C2)C(=O)c4cn5c(n4)CC(CC5)C], on Human D2R, the “D2R radioligand displacement at 10 µM (%)” value was 1 ± 2% and the inhibition at 10 µM is 1 ± 2%. Turning to `Clc1cnn(CCN2CCC(OCc3ccc(Br)cc3)CC2)c1` [Z8185092665, c1cc(ccc1COC2CCN(CC2)CCn3cc(cn3)Cl)Br], on Human D2R, the “D2R radioligand displacement at 10 µM (%)” value was determined as 4 ± 1% and the inhibition at 10 µM is 4 ± 1%.

`Clc1ccc(C2CN=C(NCc3cc(OC4CCC4)ccn3)N2)cc1` (stereo not drawn) [Z8185092666, c1cc(ccc1C2CN=C(N2)NCc3cc(ccn3)OC4CCC4)Cl]: on Human D2R, the “D2R radioligand displacement at 10 µM (%)” value is given as 24 ± 1% and the inhibition at 10 µM is 24 ± 1%.

Take `c1ccc(CC2CN(Cc3cc4ncccc4s3)C2)cc1` [Z8185092667, c1ccc(cc1)CC2CN(C2)Cc3cc4c(s3)cccn4]: at Human D2R, the “D2R radioligand displacement at 10 µM (%)” value is reported as 12 ± 3% and the inhibition at 10 µM came to 12 ± 3%. As for `O[C@@H](CN1CCc2cc(Br)sc2C1)c1ccccc1F` [Z8185092668, c1ccc(c(c1)[C@H](CN2CCc3cc(sc3C2)Br)O)F], at Human D2R, the “D2R radioligand displacement at 10 µM (%)” value is given as 3 ± 1% and the inhibition at 10 µM came to 3 ± 1%. Regarding `c1ccc(C2CN=C(NCCc3cn4c(n3)CCCC4)N2)cc1` (stereo not drawn) [Z8185092671, c1ccc(cc1)C2CN=C(N2)NCCc3cn4c(n3)CCCC4], at Human D2R, the “D2R radioligand displacement at 10 µM (%)” value is 5 ± 2% and the inhibition at 10 µM is 5 ± 2%. As to `Fc1cccc2nc(CNCc3ccccc3-n3cccn3)sc12` [Z8185092672, c1ccc(c(c1)CNCc2nc3cccc(c3s2)F)n4cccn4], on Human D2R, the “D2R radioligand displacement at 10 µM (%)” value stood at 2 ± 1% and the inhibition at 10 µM was 2 ± 1%.

Take `CC(C)(C)c1c[nH]c(CN2CCC(Cc3nccs3)C2)n1` (stereo not drawn) [Z8185092674, CC(C)(C)c1c[nH]c(n1)CN2CCC(C2)Cc3nccs3]: at Human D2R, the “D2R radioligand displacement at 10 µM (%)” value is given as 2 ± 3% and the inhibition at 10 µM was 2 ± 3%.

The values are drawn from PMC12021657, “Rapid traversal of vast chemical space using machine learning-guided docking screens” (Nature Computational Science, 2025).
